The text below walks through data of US20210213020A1, “METHODS AND PHARMACEUTICAL COMPOSITIONS FOR TREATING CANCER” (INSERM (INSTITUT NATIONAL DE LA SANTÉ ET DE LA RECHIRCHE …, priority 2018, published 2021).

Each structure is given as a SMILES string.

Data set [1] deals with purified rabbit liver SHMT. The note with it: read-out: Kd of SHMT for PLP; cited from earlier work.
The target of data set [2] is T1, human recombinant SHMT1 (Homo sapiens, UniProt P34896).
T1 sequence (P34896 1-483): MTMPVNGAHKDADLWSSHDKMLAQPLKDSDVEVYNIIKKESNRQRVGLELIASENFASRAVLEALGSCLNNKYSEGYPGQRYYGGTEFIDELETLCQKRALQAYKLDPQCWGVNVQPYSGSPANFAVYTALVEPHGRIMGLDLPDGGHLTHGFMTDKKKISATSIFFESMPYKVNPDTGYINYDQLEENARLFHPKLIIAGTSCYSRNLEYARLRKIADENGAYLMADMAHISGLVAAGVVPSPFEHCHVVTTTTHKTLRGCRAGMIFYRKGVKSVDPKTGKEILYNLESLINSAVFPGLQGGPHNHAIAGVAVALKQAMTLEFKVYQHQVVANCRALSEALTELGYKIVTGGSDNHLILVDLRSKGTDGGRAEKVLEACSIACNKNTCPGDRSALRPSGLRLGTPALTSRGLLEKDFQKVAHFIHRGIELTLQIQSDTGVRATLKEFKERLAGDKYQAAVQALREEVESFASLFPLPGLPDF
The note with it: human recombinant SHMT1 (ref 23); read-out: Kd of SHMT for PLP; cited from earlier work.

In data set [3] the target is T2, human recombinant SHMT2 (Homo sapiens, UniProt P34897).
T2 sequence (P34897 30-504): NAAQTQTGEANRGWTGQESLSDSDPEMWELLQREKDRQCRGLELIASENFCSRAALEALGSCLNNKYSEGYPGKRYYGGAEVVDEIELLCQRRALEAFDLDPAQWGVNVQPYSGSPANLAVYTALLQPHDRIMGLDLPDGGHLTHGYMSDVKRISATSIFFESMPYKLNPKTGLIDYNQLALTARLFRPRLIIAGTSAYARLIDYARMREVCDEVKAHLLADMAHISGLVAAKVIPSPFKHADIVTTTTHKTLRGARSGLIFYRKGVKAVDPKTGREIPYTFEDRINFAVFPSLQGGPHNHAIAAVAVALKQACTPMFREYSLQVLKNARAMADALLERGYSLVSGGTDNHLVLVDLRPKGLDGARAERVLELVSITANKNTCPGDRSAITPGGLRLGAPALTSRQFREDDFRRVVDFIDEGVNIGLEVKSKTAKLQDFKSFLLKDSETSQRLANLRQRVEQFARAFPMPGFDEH
The note with it: human recombinant SHMT2 (ref 23); read-out: Kd of SHMT for PLP; cited from earlier work.

For data set [4], the system named is Cancer cells. Briefly: Cytotoxic properties per se of folinic acid and PLP. The data set is classed as cell-based. The note with it: in concentrations used in the present experiment (folinic acid 20, PLP 160 μmon). How it is done:
(§1) Cancer cells were exposed in 12 well-cell plates to FUra in various concentrations under four conditions; either as a single agent [FUra]; in combination with [6R,S]-folinic acid (20 μmon) [FUra-FA]; in combination with PLP (160 μmon; Sigma-Aldrich) [FUra-PLP]; and with both agents [6R,S]-folinic acid (20 μmon), and PLP (160 μmon) together [FUra-AF-PLP]. Cells were harvested 72 hours from start of the exposure. Cell viability was measured with the Trypan Blue dye exclusion test in Malassez chambers or by flow cytometry. For the latter method, living cells defined by light double scatter were counted in a BD Accuri C6 flow cytometer (BD Biosciences). Experiments were in duplicate.

In data set [5] the target is T3, Human recombinant cytoplasmic cSHMT (Homo sapiens, UniProt P34896).
T3 sequence (P34896 1-483): T1 sequence (P34896 1-483)
The settings on record: human recombinant cytoplasmic cSHMT (ref 22); read-out: Kd of SHMT for PLP; cited from earlier work.

For data set [6] the following is noted: mice, one or two injections of PM at 150 or 450 mg/kg.
The conditions of data set [7]: female, Balb/C, mouse, in vivo; for Time by which erythrocyte PLP levels approach baseline concentrations after injection: ip.
Text: Blood was collected in heparin. Measurements of B6 vitamers were done by HPLC.28
Data set [8] relates to HCT116 human colorectal carcinoma cell line. Briefly: Cytotoxicity (cell growth inhibition) in vitro, 72 h exposure, HCT116. The data set is classed as cell-based. The note with it: HCT-116, 72 hour-incubation, FA 20 μmol/L and/or PLP 160 μmol/L where present, read-out: IC50 in μmol/L of FUra (95% CI). How it is done:
(§2) The human colorectal carcinoma cell lines HT29, and HCT116 and the murine L1210 lymphocytic leukemia were thawed from mycoplasma-free frozen stocks and were controlled for contamination. Cells were grown in customized DMEM cell culture medium without any B6-vitamer (Gibco; Life Technologies) supplemented with 10% FBS and antibiotics (streptomycin, 50 μg/ml, and penicillin, 50 U/ml) at 37° C. in an atmosphere containing 5% CO2.
as §1
(§3) Growth inhibition data obtained with FUra as a single agent [FUra], FUra with folinic acid [FUra-FA], FUra with PLP [FUra-PLP], and FUra with both folinic acid and PLP combined [FUra-FA-PLP] were studied according to the Median Effect principle for concentration-effect analysis. […]

The subject of data set [9] is L1210 murine lymphocytic leukemia. Briefly: Cytotoxicity (cell growth inhibition) in vitro, 72 h exposure, L1210. The data set is classed as cell-based. The note with it: Mus musculus, 72 hour-incubation, FA 20 μmol/L and/or PLP 160 μmol/L where present, read-out: IC50 in μmol/L of FUra (95% CI). As to the method: as §2, §1, §3
For data set [10], the system named is HT29 human colorectal carcinoma cell line. Briefly: Cytotoxicity (cell growth inhibition) in vitro, 72 h exposure, HT29. The settings on record: HT-29, 72 hour-incubation, FA 20 μmol/L and/or PLP 160 μmol/L where present, read-out: IC50 in μmol/L of FUra (95% CI). The data set is classed as cell-based. How it is done: as §2, §1, §3

Take `Cc1ncc(COP(=O)(O)O)c(C=O)c1O` [PLP, pyridoxal 5′-phosphate]: the dissociation constant (Kd) was 700 nM in [1], 250 nM in [2], 440 nM in data set [3] and 850 nM in data set [5]. The “Cytotoxic properties per se” value in data set [4] is “neither folinic acid nor PLP carry cytotoxic properties per se”.
Turning to `Nc1nc2c(c(=O)[nH]1)N(C=O)C(CNc1ccc(C(=O)N[C@@H](CCC(=O)O)C(=O)O)cc1)CN2` (stereo partly shown) [folinic acid, N5-formyl tetra hydro pteroylglutamate, reference compound], the “Cytotoxic properties per se” value in data set [4] was “neither folinic acid nor PLP carry cytotoxic properties per se”.
Consider `Cc1ncc(CO)c(CN)c1O` [PM, pyridoxamine], for which the “Signs of acute toxicity” value in [6] was “No signs of acute toxicity”. Further, in [7], the “Peak erythrocyte PLP concentration, 450 mg/kg versus 150 mg/kg” value is reported as “about 6 fold” and the “Time by which erythrocyte PLP levels approach baseline concentrations after injection” value was at most 12 h.
In the case of `O=c1[nH]cc(F)c(=O)[nH]1` [FUra, 5-fluorouracil], the IC50 is 1.31 µmol/L in data set [8], 0.47 µmol/L in data set [9] and 1.18 µmol/L in data set [10].
Regarding `Cc1ncc(CO)c(CO)c1O` [PN, pyridoxine, reference compound], the “Time by which erythrocyte PLP levels approach baseline concentrations after injection” value in [7] was at most 12 h.

As a reminder, the Kd is the equilibrium constant for the complex coming apart.
